Experimental data: patent publication US11873298B2, “Compounds and uses thereof” (JANSSEN PHARMACEUTICA NV, priority 2017, dated 2024)

Legend:
[1] = target: T1, SCD1 (Homo sapiens, UniProt O00767); assay: Growth inhibition of humanized yeast strain expressing SCD1 as sole desaturase; type: cell-based
T1 construct: host or cells: S. cerevisiae ole1Δ strain (W303 pdr1Δ pdr3Δ background), plasmid pRS316 with TDH3 promoter and CYC1 terminator
T1 sequence (O00767 1-359): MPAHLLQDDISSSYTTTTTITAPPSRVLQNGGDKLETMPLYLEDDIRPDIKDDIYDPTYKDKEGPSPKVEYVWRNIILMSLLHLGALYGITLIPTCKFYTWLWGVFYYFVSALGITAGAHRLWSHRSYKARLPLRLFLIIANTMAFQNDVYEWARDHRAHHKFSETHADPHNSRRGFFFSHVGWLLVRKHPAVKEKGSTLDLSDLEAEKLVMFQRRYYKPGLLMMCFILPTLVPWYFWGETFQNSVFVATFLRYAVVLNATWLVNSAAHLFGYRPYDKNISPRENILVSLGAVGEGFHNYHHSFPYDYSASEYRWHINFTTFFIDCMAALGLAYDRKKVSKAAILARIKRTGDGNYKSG
Experimental: Strain oleΔ (yeast ole1 deletion mutant) was constructed by deleting OLE1 with NAT-MX6 in BY4741, amplifying the deletion cassette from the genomic DNA of the resulting strain with primers flanking the ORF by 1000 bp upstream and downstream, transforming the resulting deletion cassette into W303 pdr1Δ pdr3Δ, and plating transformants on YPD media containing G418 (200 μg/mL) and nourseothricin ([…]) with 0.01% TWEEN®-20 and 0.5 mM oleic and palmitoleic acids.
The coding sequence of yeast OLE1 was also cloned into this plasmid). These clones were then transformed into the ole1Δ strain and plated on CSM-Ura media (CSM lacking uracil) with 2% glucose (w/v) and independent colonies were isolated and amplified.
All compound profiling experiments were performed using the same basic protocol. Different genetic backgrounds (e.g., gene deletions) or conditions (e.g., addition of oleic and palmitoleic acid) were replaced as indicated below.
Yeast were cultured using standard techniques in complete synthetic media (CSM) and yeast nitrogen base supplemented with 2% (w/v) carbon source (glucose, raffinose, or galactose) to regulate the expression of the toxic disease protein. An initial starter culture was inoculated in 3 mL CSM-Glucose media and incubated overnight in a 30° C. shaker incubator (225 rpm). Saturated morning cultures were then diluted 1:20 in fresh CSM-Raffinose media and grown for 6 h to an OD600 (optical density) of ˜0.4-0.8 at 30° C. with shaking.
Compound administration was performed in two separate steps. First, 15 μL of CSM-Galactose (induces expression of toxic protein) was dispensed into clear 384 well assay plates using a MULTIDROP™ Combi reagent dispenser. […] The cultures described above were then diluted to a 2× concentration (0.03 and 0.08 for alpha-synuclein and ApoE, final ODsoo of 0.015 and 0.04) in CSM-Galactose. For wild-type and Ole1/SCD1/SCD5 plasmid-containing strains, the 2× cell density was 0.02. […] For 96-well assays (FIGS. 1A and 1B), compound dilutions in DMSO were generated in 96 well plates and 1 μL was manually pipetted into 96 well clear bottom assay plates.
For experiments using a plasmid-borne copy of Ole1, SCD1, or SCD5 (FIGS. 3B, 6, and 7), media lacking uracil (SX-Ura, where X is glucose, raffinose, or galactose), was used for all steps of the compound profiling protocol to ensure its maintenance throughout the assay.
After yeast delivery, assay plates were incubated under humidified conditions at 30° C. for 24 to 40 h. ApoE4 rescue experiments were stopped at 24 h, aSyn experiments at 40 h, Ole1 at 24 h, and SCD1/SCD5 at 40 h. The growth of yeast was monitored by reading the ODsoo of each well using a microplate reader (Perkin Elmer EnVision™).

[2] = target: T2, SCD5 (Homo sapiens, UniProt Q86SK9); assay: Growth inhibition of humanized yeast strain expressing SCD5 as sole desaturase; type: cell-based
T2 construct: host or cells: S. cerevisiae ole1Δ strain (W303 pdr1Δ pdr3Δ background), plasmid pRS316 with TDH3 promoter and CYC1 terminator
T2 sequence (Q86SK9 1-330): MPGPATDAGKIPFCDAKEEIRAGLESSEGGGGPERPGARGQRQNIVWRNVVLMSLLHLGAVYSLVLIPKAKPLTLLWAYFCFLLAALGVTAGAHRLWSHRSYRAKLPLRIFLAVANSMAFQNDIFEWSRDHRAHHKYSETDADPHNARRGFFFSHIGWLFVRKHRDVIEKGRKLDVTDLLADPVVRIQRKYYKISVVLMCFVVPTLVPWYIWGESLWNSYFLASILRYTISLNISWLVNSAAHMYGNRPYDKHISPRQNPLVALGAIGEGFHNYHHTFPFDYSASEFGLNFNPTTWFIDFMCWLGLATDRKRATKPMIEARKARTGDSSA
How it was run: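 ole1Δ yeast (W303 pdr1Δ pdr3Δ background) carrying plasmid-borne Ole1, SCD1 or SCD5, grown in uracil-free media; cultures pre-grown in raffinose, seeded at 2× density 0.02 in galactose media with compound. Growth read as OD600 after 24 h at 30° C. for Ole1, 40 h for SCD1/SCD5.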

[3] = growth inhibition of humanized yeast strain expressing human SCD1
[4] = growth inhibition of humanized yeast strain expressing human SCD5
[5] = humanized yeast strain expressing SCD5
[6] = yeast strain expressing human SCD1 as sole desaturase, Table 8
[7] = yeast strain expressing human SCD5 as sole desaturase, Table 8

Row | Compound | IC50 ([1]; humanized yeast strain, 40 h) [µM] | IC50 ([2]; humanized yeast strain, 40 h) [µM] | further results
1 | O=C(C1CC1)N1CCN(c2noc(-c3ccc4cnn(C5COC5)c4c3)n2)CC1 [Compound 844] | > 45 | 0.015 | 
2 | O=C(N1CCC(c2noc(-c3ccnc(C4CCOC4)c3)n2)CC1)C1(C(F)(F)F)CCC1 (stereo not shown) [Compound 1176] | > 45 | 0.14 | 
3 | COC(=O)N1CCC(c2noc(-c3ccc4cnn(C5CCS(=O)(=O)C5)c4c3)n2)CC1 (stereo not shown) [Compound 1077] | > 45 | 0.3 | 
4 | O=C(N1CCN(c2noc(-c3ccc4cnn(C5COC5)c4c3)n2)CC1)C1(F)CC1 [Compound 970] | 8.5 | 0.00196 | 
5 | CC(C)C(=O)N1CCC(c2noc(-c3ccc4cnn(C5COC5)c4c3)n2)CC1 [Compound 927] | > 45 | 0.14 | 
6 | COC(=O)N1CCC(c2nc(-c3cccc(C4CCOC4)c3)no2)CC1 (stereo not shown) [Compound 819] | > 45 | 3.72 | 
7 | CC(C)n1ncc2ccc(-c3nc(C4CCN(C(=O)c5ncccn5)CC4)no3)cc21 [Compound 716] |  |  | IC50 [1, 3]: > 45 µM; IC50 [2, 4]: > 45 µM
8 | COC(=O)N1CCN(c2noc(-c3ccc4cnn(C(C)C)c4c3)n2)CC1 [Compound 630] |  |  | IC50 [1, 3]: 10.2 µM; IC50 [2, 4]: 0.014 µM
9 | CC1(CC(=O)N2CCN(c3nnc(-c4ccc5cnn(C6COC6)c5c4)o3)CC2)CC1 [Compound 995] | > 45 | > 45 | 
10 | CC(C)(C)OC(=O)N1CCC(c2nc(-c3ccc4c(Br)ncn4c3)no2)CC1 [Compound 872] | > 45 | 8.06 | 
11 | COC(=O)N1CCC(c2nc(-c3ccc4cnc(C5COC5)n4c3)no2)CC1 [Compound 900] | > 45 | 13.1 | 
12 | CC(C)n1ncc2ccc(-c3noc(C4CCN(C(=O)C56CC(F)(C5)C6)CC4)n3)cc21 [Compound 756] | > 45 | 4.36 | 
13 | CC(C)(C)OC(=O)N1CCC(c2nc(-c3ccc4cnn([C@H]5C[C@@H](O)C5)c4c3)no2)CC1 [Compound 823] | > 45 | 0.119 | 
14 | COC1CCC(S(=O)(=O)N2CCC(c3nc(-c4ccc5cnn(C(C)C)c5c4)no3)CC2)CC1 (stereo not shown) [Compound 675] |  |  | IC50 [1, 3]: > 45 µM; IC50 [2, 4]: 0.01 µM
15 | COC(=O)N1CCC(F)(c2nc(-c3ccc4cnn(C(C)C)c4c3)no2)CC1 [Compound 622] |  |  | IC50 [1, 3]: > 45 µM; IC50 [2, 4]: 1.61 µM
16 | CC(C)(C)OC(=O)N1CCC(c2nc(-c3ccc4cn(C5CCCOC5)nc4c3)no2)CC1 (stereo not shown) [Compound 719] |  |  | IC50 [1, 3]: > 45 µM; IC50 [2, 4]: > 45 µM
17 | CC(C)n1ncc2ccc(-c3noc(C4CCN(C(=O)CN(C)C)CC4)n3)cc21 [Compound 686] |  |  | IC50 [1, 3]: > 45 µM; IC50 [2, 4]: > 45 µM
18 | CC(C)(C)OC(=O)N1CCC(c2nc(-c3ccc4cnn(C5CCC5)c4c3)no2)CC1 [Compound 730] |  |  | IC50 [1, 3]: > 45 µM; IC50 [2, 4]: 0.718 µM
19 | CC(C)n1ncc2ccc(-c3noc(C4CCN(C(C)C(F)(F)F)CC4)n3)cc21 (stereo not shown) [Compound 1051] | > 45 | 7.5 | 
20 | CC(C)n1ncc2ccc(-c3noc(N4CCC(O)(CCCl)CC4)n3)cc21 [Compound 763] | 29.5 | 18 | 
21 | C[C@@H]1CN(c2noc(-c3ccc4cnn(C5COC5)c4c3)n2)CCN1C(=O)OC(C)(C)C [Compound 959] | > 45 | > 45 | 

Row | Compound | IC50 ([1]; humanized yeast strain, 40 h) [µM] | IC50 ([2]; humanized yeast strain, 40 h) [µM] | further results
22 | O=C(c1ccccc1Cl)N1CCN(c2noc(-c3ccc4cnn(C5COC5)c4c3)n2)CC1 [Compound 726] |  |  | IC50 [1, 3]: 5.65 µM; IC50 [2, 4]: 0.01 µM
23 | COC(=O)N1CCCC(c2noc(-c3ccc4cnn(C5COC5)c4c3)n2)CC1 (stereo not shown) [Compound 873] | > 45 | 41.3 | 
24 | CC(C)n1ncc2ccc(-c3noc(C4CCN(C(=O)CNC(=O)c5cccc(Cl)c5)CC4(F)F)n3)cc21 (stereo not shown) [Compound 522] |  |  | IC50 ([1]; humanized yeast strain expressing SCD1): > 45 µM; IC50 [2, 5]: > 45 µM
25 | CC(C)C(=O)N1CCC(c2noc(-c3ccnc(NC4COC4)c3)n2)CC1 [Compound 1153] | 1.94 | 0.84 | 
26 | COC(=O)N1CCC(c2noc(-c3cccc(N4CCOCC4)c3)n2)CC1 [Compound 983] | > 45 | 1.51 | 
27 | Cc1cc(-c2nc(C3CCN(C(=O)OC(C)(C)C)CC3)no2)cc(C2CCOC2)n1 (stereo not shown) [Compound 1266] |  |  | IC50 [1, 6]: 31.7 µM
28 | CC1(OC(=O)N2CCC(c3noc(-c4ccc5cnn([C@H]6CCOC6)c5c4)n3)CC2)CC1 [Compound 1209] |  |  | IC50 [1, 6]: 12.6 µM
29 | CC(C)(C)OC(=O)N1CCC(c2noc(-c3ccc4cnn([C@H]5CCOC5)c4c3)n2)CC1 [Compound 1201] |  |  | IC50 [1, 6]: 1.4 µM
30 | COC(=O)N1CCC(c2noc(-c3ccc4cnn([C@@H]5CCOC5)c4c3)n2)CC1 [Compound 876] | > 45 |  | 
31 | COC(=O)N1CCC(c2noc(-c3ccc4cnn([C@@H]5CCOC5)c4c3)n2)CC1 [Compound 877] | > 45 |  | 
32 | O=C(c1ccccc1Cl)N1CCC(c2nc(-c3ccc4cnn(C5COC5)c4c3)no2)CC1 [Compound 562] |  |  | IC50 [2, 5]: 1.5 µM
33 | COC(=O)N1CCC2(CC1)CN(c1nc(-c3ccc4cnn(C(C)C)c4c3)no1)C2 [Compound 570] |  |  | IC50 [2, 5]: 26.3 µM
34 | CC(C)(C)OC(=O)N1CCC(c2noc(-c3cnnc(C4CCOC4)c3)n2)CC1 (stereo not shown) [Compound 1234] |  |  | IC50 [2, 7]: 0.49 µM
35 | CC(C)n1ncc2ccc(-c3noc(C4CCN(C(=O)c5ncccc5Cl)CC4)n3)cc21 [Compound 587] |  |  | IC50 [2, 5]: 4.92 µM
36 | O=C(N1CCC(c2nc(-c3ccnc(C4CCOC4)c3)no2)CC1)C1(F)CC1 (stereo not shown) [Compound 1229] |  |  | IC50 [2, 7]: 1.51 µM
37 | CC(C)(C)OC(=O)N1CCC(c2noc(-c3ccc(C#N)c(N4CCOCC4)c3)n2)CC1 [Compound 1290] |  |  | IC50 [2, 7]: 0.52 µM
38 | CC1CN(c2cc(-c3nc(C4CCN(C(=O)C(C)C)CC4)no3)ccc2F)CC(C)O1 (stereo not shown) [Compound 1305] |  |  | IC50 [2, 7]: 5.39 µM
39 | O=C(OC1CCC1)N1CCC(c2noc(-c3cc(C4CCOC4)ncn3)n2)CC1 (stereo not shown) [Compound 1312] |  |  | IC50 [2, 7]: 0.02 µM
40 | CC1(CC(=O)N2CCC(c3nc(-c4ccc5cnn(C6COC6)c5c4)no3)CC2)CC1 [Compound 559] |  |  | IC50 [2, 5]: 1.19 µM
41 | CC(C)CC(=O)N1CCC(c2cc(-c3cnc4cnn(C5COC5)c4c3)on2)CC1 [Compound 1231] |  |  | IC50 [2, 7]: 16.4 µM
